“Also recorded” adds a separate entry of the source. Where no end group is shown, it is not given here.
Assays:
[1] = test system: polyclonal rabbit antiserum to peptide MBP1-8; assay: Positive antibody control of the neutralization assay; assay type: binding
Method: (§1) Constant amounts of anti-MBP (15 radioactivity binding units corresponding to 100 for scale expansion purposes = %0) were incubated with increasing amounts of h-MBP (0-1000 ng) or individual peptides of MBP (0-10.000 ng) in a liquid phase assay and after 1.5 hours incubation, free anti-MBP levels were determined in all mixtures. Anti-MBP isolated from 7 individual MS patients or pooled anti-MBP from 10 different MS patients were used in neutralization experiments. Calf thymus histone and human serum albumin were used as negative antigen controls (range: 10-1000 ng). One monoclonal antibody (MAb) to peptide MBP64-78 and a polyclonal rabbit antiserum to peptide MBP1-8 were used as positive antibody controls (Groome, N., Harland, J., and Dawkes, A., Neurochem Int 7:309-317, 1985, Barry, R., Payton. M., and Groome, N., Neurochem Int 2:291-300. 1991). Another mouse monoclonal antibody to epitope 45-50 was used as negative antibody control.

[2] = test system: anti-MBP purified from CSF of MS patients; assay: In vitro neutralization of purified anti-MBP (liquid phase assay, then solid phase radioimmunoassay); assay type: binding, human; design: key to REACTIVITY WITH ANTI-MBP: + +: complete neutralization; +: partial neutralization; -: insignificant reactivity; conditions: for REACTIVITY WITH ANTI-MBP: purified anti-MBP, peptides 0-10.000 ng, h-MBP 0-1000 ng, 1.5 hours incubation; for neutralization of purified anti-MBP: pooled anti-MBP from 10 different MS patients, peptides up to 10.000 ng, MBP and negative antigen controls up to 1000 ng
Method: as §1
Anti-MBP levels were determined by a solid phase radioimmunoassay with human MBP (Warren, K.G. and Catz, I., Ann Neurol 209:20-25, 1986; Warren, K.G. and Catz, I., Ann Neurol 21:183-187, 1987; and Warren, K.G. and Catz, I., J Neurol Sci 91:143-151. 1989). Free anti-MBP levels were measured in all fractions from affinity chromatography and in all neutralization mixtures. All individual samples were run in quadruplicate using the same iodinated material in order to minimize between-assay variability.

[3] = test system: MS patients; assay: Monitoring for adverse effects after peptide administration; assay type: in vivo, human
Method: After determining that peptide MBP75-95 neutralized F anti-MBP in vivo for periods in excess of 7 days, it was elected to repeatedly inoculate 10 mg MBP75-95 into the spinal fluid at weekly intervals for 10 weeks. This experiment was conducted, in 3 different patients with chronic progressive MS who have not participated in the single peptide injection project and volunteered for this study. F and B anti-MBP were determined 1-2 weeks prior to the first inoculation, prior to and 30 minutes following each of the 10 injections and again 1 month after the last injection. Cell counts, total protein, glucose, IgG and albumin levels were determined in all CSFs obtained before each of the 10 injections. Prior to the first and after the last injection blood was obtained and analyzed for electrolytes, creatinine, cardiac and liver enzymes and hematology panel.
Blood was obtained before injection as well as 16 and 30 days later and analyzed for electrolytes, creatinine, cardiac and liver enzymes and hematology panel. Spinal fluid was monitored for cell counts, total protein, glucose, IgG and albumin levels.

[4] = test system: F and B anti-MBP purified by affinity chromatography from CSF and MS brain tissue; assay: Competitive inhibition assay with decapeptides (MBP epitope localization); assay type: binding, human; conditions: purified F and B anti-MBP from MS brain tissue (Fig. 10); percent inhibition = 100 - radioactivity units
Method: (§2) Prior to being assayed all CSF and/or tissue samples were diluted to a final IgG concentration of 0.010 g/l. F anti-MBP was detected directly in CSF or tissue extract while B levels of antibody were determined following acid hydrolysis of immune complexes with glycine HCl buffer pH 2.2. Non-specific binding was performed for each sample in uncoated wells. For epitope localization, synthetic peptides were firstly reacted with purified antibody in a liquid phase competitive assay and then anti-MBP was determined by radioimmunoassay in all resulting supernatants. Results of the combined competitive binding assay and radioimmunoassay were expressed as percent inhibition of synthetic peptide defined as 100 - radioactivity units. Samples were done in 10 replicates and counted for 10 minutes each in a LKB1275 Minigamma counter. A pool of tissue-purified anti-MBP was used at 5 pre-established dilutions as positive controls. Pooled CSF from patients with non-neurological diseases was used as negative controls. Within assay reproducibility was between 3 and 5% and between assay variation was less than 7 %.
The peptide(s) producing maximum inhibition were considered to be most highly associated with the antibody binding site.

[5] = Solubility in normal saline
[6] = test system: CSF anti-MBP; assay: Intrathecal peptide administration, CSF anti-MBP by radioimmunoassay; assay type: in vivo, human
Method: Anti-MBP levels were determined by a solid phase radioimmunoassay with human MBP coated on Immulon microtiter wells. Immulon microtiter wells were coated with 100 µl of 10 µg/ml of MBP (1 µg/well) and incubated overnight at 37°C. After quenching with bovine serum albumin (BSA) and three water washes, the wells were stored at room temperature. Samples of 100 µl of CSF or tissue extracts diluted to 0.010 gm of IgG/l (with 0.01 M Barbitol Buffered Saline (BBS) pH 6.9-7.1. 0.5% BSA and 0.05% Tween 20) were incubated in MBP-coated wells for 1-2 hours at room temperature. After 5 buffer washes (with 0.01 M BBS, 0.5 BSA and 0.05% Tween 20), wells were incubated with goat anti-rabbit IgG-Fc specific (in 0.01 M BBS, 0.05% Tween 20, 0.5% BSA) for 1 hour at room temperature and then rinsed as above. Finally, ^125I-protein A (or ^125 I-protein G) was added and incubated for 1 hour at room temperature. When ^125I-protein G was used as a tracer, ovalbumin replaced BSA in assay buffer and for quenching. After three final water washes wells were individually counted. Results are expressed in radioactivity defined as: (counts of sample - counts of blank) ÷ (counts of total radioactivity - counts of blank). All samples are run in 10 replicate and counting time is 10 minutes in order to collect > 10,000 counts for any positive sample.
as §2, with “A pool of tissue-purified anti-MBP was used at 5 pre-established dilutions as positive controls. Pooled CSF from patients with non-neurological diseases was used as negative controls. Within assay reproducibility was between 3 and 5% and between assay variation was less than 7 %.” left out
A Phase 1 experiment to determine the effect of synthetic peptide MBP75-95 on F and B titers of CSF anti-MBP was conducted. […] 14 patients volunteered for this study: eight patients were selected on the basis of their initial titre of F CSF anti-MBP (above 8 radioactivity units) (Table 2) to receive one intrathecal injection of either peptide MBP75-95 which bound anti-MBP in vitro or a non-binding control peptide MBP35-58 (Warren and Catz, 1993b). […] Cell counts, total protein, glucose, IgG and albumin levels were determined in all CSF samples obtained. F and B anti-MBP levels were determined by radioimmunoassay, as described above. […]

In the case of “MBP1-8: synthetic peptide of human MBP sequence 1-8 with cysteine (MGNHAGKR; also: added cysteine, end not given here; UniProt P02686 1-8, looked up, fragment)”, the “inhibition of MAb to peptide MBP 1-8” value [1] is reported as “inhibited” and the “REACTIVITY WITH ANTI-MBP” value [2] is reported as “-”.
For KSHGRTQDENPVVHFFKNIVT [MBP75-95], the adverse effects ([3]; 500 mg intravenously over 30 minutes, patient 8M41) was “No adverse effects were observed” and the “adverse effects / systemic complications” value ([3]; repeated intrathecal inoculations, electrolytes, cardiac-liver-kidney function, hematology) was “no adverse complications have occurred”.
With “Cy 51 - 64 Gly: synthetic peptide of human MBP sequence 51-64 with cysteine and Gly (ANQNNGTSSQDTAV; also: added cysteine and glycine, ends not given here; UniProt P02686 51-64, looked up, fragment)” the “REACTIVITY WITH ANTI-MBP” value [2] was “+”.
For HHPARTAHYGSLPQK [MBP61-75], the “neutralization of purified anti-MBP” value [2] was “partially neutralized” and the “REACTIVITY WITH ANTI-MBP” value [2] was “+”.
For “MBP51 -60: decapeptide of human MBP residues 51-60, negative control (ANQNNGTSSQ; UniProt P02686 51-60, looked up, fragment)”, the “percent inhibition of both F and B anti-MBP” value [4] was 0-10%.
For “Thr Gln Asp Glu Asn Pro Val Val His Phe Phe Lys Asn Ile Val Thr Pro Arg (TQDENPVVHFFKNIVTPR; printed: Thr Gln Asp Glu Asn Pro Val Val His Phe Phe Lys Asn Ile Val Thr Pro Arg) [MBP80-97]”, the “neutralization of anti-MBP purified from 7 individual MS patients” value ([2]; anti-MBP of individual patients) was “completely neutralized”, the “neutralization of purified anti-MBP” value [2] was “completely neutralized” and the “REACTIVITY WITH ANTI-MBP” value [2] was “+ +”. The “times less effective on a molar basis than intact MBP at causing inhibition” value ([2]; relative to intact MBP) was “approximately 100 times”.
With “18-32: synthetic peptide of human MBP sequence 18-32 (NSETNRGESEKKRNL; UniProt P02686 18-32, looked up, fragment)” the “REACTIVITY WITH ANTI-MBP” value [2] was “-”.
In the case of “117 - 129: synthetic peptide of human MBP sequence 117-129 (LQTIQEDSAATSE; UniProt P02686 117-129, looked up, fragment)”, the “REACTIVITY WITH ANTI-MBP” value [2] is reported as “-”.
With “Cy 4 - 18: synthetic peptide of human MBP sequence 4-18 with cysteine (HAGKRELNAEKASTN; also: added cysteine, end not given here; UniProt P02686 4-18, looked up, fragment)” the “REACTIVITY WITH ANTI-MBP” value [2] was “-”.
For “MBP 111 -120: decapeptide of human MBP residues 111-120, negative control (PSESDELQTI; UniProt P02686 111-120, looked up, fragment)”, the “percent inhibition of both F and B anti-MBP” value [4] was 0-10%.
With “141 - 155: synthetic peptide of human MBP sequence 141-155 (SQRHGSKYLATASTM; UniProt P02686 141-155, looked up, fragment)” the “REACTIVITY WITH ANTI-MBP” value [2] was “-”.
For “VVHFFKNIVT [MBP86-95, Val Val His Phe Phe Lys Asn Ile Val Thr]”, the solubility [5] was “very low solubility”.
With “26 - 40: synthetic peptide of human MBP sequence 26-40 (SEKKRNLGELSRTTS; UniProt P02686 26-40, looked up, fragment)” the “REACTIVITY WITH ANTI-MBP” value [2] was “-”.
In the case of “MBP35-58: non-binding, control synthetic peptide of human MBP residues 35-58 (LSRTTSEDNEVFGEADANQNNGTS; also: added cysteine, end not given here; UniProt P02686 35-58, looked up, fragment)”, the “REACTIVITY WITH ANTI-MBP” value [2] is reported as “-”, the “F and B levels of CSF anti-MBP” value ([6]; one intrathecal injection of 1, 2.5, 5 and 10 mg, 24 hour experiment) is reported as “remained unaffected; also recorded: remained unchanged” and the “F anti-MBP in CSF” value ([6]; one intrathecal injection, 5 mg) is reported as “remained elevated at baseline level”. For the same substance, the “F anti-MBP in CSF” value ([6]; one intrathecal injection, 10 mg) was “persistently elevated” and the “CSF F anti-MBP over increasing doses” value ([6]; one intrathecal injection, increasing amounts 1, 2.5, 5 and 10 mg) was “did not react”.
In the case of “Cy 136 - 149: synthetic peptide of human MBP sequence 136-149 with cysteine (SQKRPSQRHGSKYL; also: added cysteine, end not given here; UniProt P02686 136-149, looked up, fragment)”, the “REACTIVITY WITH ANTI-MBP” value [2] is reported as “-”.
With “Cy 127 - 140: synthetic peptide of human MBP sequence 127-140 with cysteine (TSESLDVMASQKRP; also: added cysteine, end not given here; UniProt P02686 127-140, looked up, fragment)” the “REACTIVITY WITH ANTI-MBP” value [2] was “-”.
For “Cy 11 - 24: synthetic peptide of human MBP sequence 11-24 with cysteine (NAEKASTNSETNRG; also: added cysteine, end not given here; UniProt P02686 11-24, looked up, fragment)”, the “REACTIVITY WITH ANTI-MBP” value [2] was “-”.

— patent EP0970121B1, “PEPTIDE FRAGMENTS OF MYELIN BASIC PROTEIN, THEIR PHARMACEUTICAL COMPOSITIONS AND THEIR USE IN TREATING MULTIPLE SCLEROSIS” (The Governors of the University of Alberta, priority 1997, dated 1998)
